In the supplement of paper PMC10307832:

How the values were obtained:
[1] = compound: C#Cc1cccc(Nc2ncnc3cc(OC)c(OCCCCCCC(=O)NO)cc23)c1 [CUDC-101] + CC(C)C[C@H](NC(=O)[C@H](Cc1ccccc1)NC(=O)c1cnccn1)B(O)O [Bortezomib] (partner 0.002 µM); assay: relative viability (nuclei count vs DMSO), 5 days (fraction); higher = more cells survive
Method in brief: (§1)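 After 5 days of treatment, lung cancer cells in 1536-well plates were fixed and stained in a single step (final 0.05% Triton X-100, 1% formaldehyde, 1 ug/ml Hoechst) and their nuclei counted on 4× images. Treatment had been applied by pin tool the day after seeding as one drug alone or as a fixed anchor-drug dose with five library-drug doses (not always all listed) in √10 steps. Relative viability is the nuclei count of treated wells divided by that of vehicle wells, and values are medians of duplicate plates.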

[2] = compound: COc1cc(N2CCC(N3CCN(C)CC3)CC2)ccc1Nc1ncc(Cl)c(Nc2ccccc2S(=O)(=O)C(C)C)n1 [NVP-TAE684] + CS(=O)(=O)N1CCN(Cc2cc3nc(-c4cccc5[nH]ncc45)nc(N4CCOCC4)c3s2)CC1 [Pictilisib] (partner 1 µM); assay: as above
Method in brief: as §1

Cell Line | relative viability ([1]; first compound 0.01 µM) | relative viability ([1]; first compound 0.03162 µM) | relative viability ([1]; first compound 0.1 µM) | relative viability ([1]; first compound 0.3162 µM) | relative viability ([1]; first compound 1 µM) | relative viability ([2]; first compound 0.2 µM) | relative viability ([2]; first compound 0.6325 µM) | relative viability ([2]; first compound 2 µM)
RERF-LC-KJ | 1.2 | 1.07 | 1.09 | 1.14 | 0.97 | 0.613 | 0.484 | 0.494
A-427 | 0.936 | 1.01 | 0.925 | 0.985 | 0.878 | 0.735 |  | 0.652
EKVX | 0.956 | 1.08 | 1.04 | 0.994 | 0.729 | 0.437 | 0.354 | 0.319
NCI-H460 | 1.13 | 1.04 | 1.09 | 1.11 | 1.18 | 0.333 | 0.362 | 0.295
HARA | 1.21 | 1.09 | 1.08 | 0.918 | 0.709 | 0.459 | 0.238 | 0.275
NCI-H1944 |  |  |  |  |  | 0.334 | 0.308 | 0.3
BEN | 0.882 | 0.759 | 0.779 | 0.75 | 0.543 | 0.467 | 0.472 | 0.527
PC-14 | 1.07 | 0.978 | 0.89 | 0.596 | 0.219 | 0.726 | 0.589 | 0.157
NCI-H322M | 1.15 | 1.44 | 1.18 | 1.08 | 0.776 | 0.43 | 0.463 | 0.388
NCI-H1651 | 1.04 | 0.946 | 0.957 | 0.912 | 0.921 | 0.366 | 0.629 | 0.402
LCLC-97TM1 | 0.629 | 0.308 | 0.527 | 0.546 | 0.28 | 0.112 | 0.145 | 0.148
NCI-H727 | 0.823 | 0.967 | 0.775 | 0.993 | 0.397 | 0.373 | 0.388 | 0.261
NCI-H1666 | 0.967 | 0.824 | 0.805 | 0.867 | 0.721 | 0.31 | 0.348 | 0.274
IA-LM | 0.772 | 0.781 | 0.795 | 0.575 | 0.196 | 0.253 | 0.176 | 0.202
NCI-H1792 | 0.98 | 0.965 | 0.918 | 0.952 | 0.965 | 0.227 | 0.256 | 0.232
NCI-H1299 | 1.05 | 0.997 | 1.07 | 1.05 | 1.03 | 0.601 | 0.707 | 0.364
HCC-366 | 1.04 | 0.988 | 1.07 | 1.07 | 0.996 | 0.0975 | 0.105 | 0.113
NCI-H1437 | 0.547 | 0.483 | 0.398 | 0.693 | 0.284 | 0.369 | 0.433 | 0.297
EPLC-272H | 0.729 | 1 | 0.882 | 0.627 | 0.384 | 0.285 |  | 0.184

Cell Line | relative viability ([1]; first compound 0.01 µM) | relative viability ([1]; first compound 0.03162 µM) | relative viability ([1]; first compound 0.1 µM) | relative viability ([1]; first compound 0.3162 µM) | relative viability ([1]; first compound 1 µM) | relative viability ([2]; first compound 0.2 µM) | relative viability ([2]; first compound 0.6325 µM) | relative viability ([2]; first compound 2 µM)
NCI-H1703 | 0.401 |  | 0.305 | 0.194 | 0.13 | 0.225 | 0.243 | 0.172
HCC-15 | 1.03 | 1.08 | 1.02 | 1 | 0.851 | 0.718 | 0.738 | 0.737
NCI-H2347 | 0.94 | 1.05 | 0.866 | 0.95 | 0.805 | 0.572 | 0.482 | 0.597
COR-L 105 | 0.833 | 0.963 | 0.639 | 0.611 | 0.176 | 0.307 | 0.281 | 0.264
NCI-H1650 | 0.179 | 0.216 | 0.202 | 0.194 | 0.163 | 0.564 | 0.405 | 0.161
NCI-H838 | 0.872 | 0.728 | 0.879 | 1.25 | 0.533 | 0.408 | 0.356 | 0.235
NCI-H2009 | 1.01 | 1.04 | 1.05 | 1.04 | 0.889 | 0.949 | 0.68 | 0.514
SK-MES-1 |  |  |  |  |  | 0.475 | 0.393 | 0.309
H3255 | 0.743 | 0.736 | 0.32 | 0.541 | 0.186 | 0.454 | 0.424 | 0.256
HCC-78 | 0.462 | 0.383 | 0.588 | 0.342 | 0.175 | 0.207 | 0.138 | 0.172
EMC-BAC-2 | 1.06 | 1.05 | 1.09 | 1.18 | 0.869 | 0.527 | 0.513 | 0.456
Calu-6 | 0.955 | 1.07 | 1.05 | 1.06 | 0.815 | 0.954 | 0.741 | 0.444
NCI-H2170 |  |  |  |  |  | 0.272 | 0.248 | 0.275
NCI-H2228 | 1.11 | 1.2 | 1.18 | 0.97 | 0.279 | 0.281 | 0.167 | 0.223
HCC-827 | 1.08 | 1.07 | 0.788 | 0.439 | 0.344 | 1.14 | 0.84 | 0.968
ChaGo-K-1 | 1.22 | 1.31 | 0.821 | 1.03 | 0.963 | 1.14 | 0.424 | 0.776
LXF-289 | 1.02 | 0.987 | 0.972 | 0.953 | 0.704 | 0.717 | 0.812 | 0.578
HOP-62 | 0.605 | 0.773 | 1.09 | 0.667 | 0.473 | 0.815 | 0.75 | 0.754
